Data published in BindingDB's records for doi:10.1016/s0028-3908(05)80009-7 (Universit&Eacute, 1994).

Target: T1, Pituitary adenylate cyclase-activating polypeptide (Rattus norvegicus, UniProt P13589)
T1 sequence (P13589 whole entry): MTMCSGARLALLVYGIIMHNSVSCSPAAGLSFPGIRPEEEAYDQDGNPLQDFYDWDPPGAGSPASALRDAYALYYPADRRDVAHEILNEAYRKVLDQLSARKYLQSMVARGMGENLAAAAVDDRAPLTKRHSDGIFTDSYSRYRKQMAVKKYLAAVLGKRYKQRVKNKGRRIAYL

[C][C][C]([C])[C@H]([N]C(=O)[C][N]C(=O)[C@H]([C][C]C([O])=O)[N]C(=O)[C@@H]([N])[C][O])C(=O)[N][C@@H]([C]c1ccccc1)C(=O)[N][C@H](C(=O)[N][C@@H]([C]C([O])=O)C(=O)[N][C@@H]([C][O])C(=O)[N][C@@H]([C]c1ccc([O])cc1)C(=O)[N][C@@H]([C][O])C(=O)[N][C@@H]([C][C][C]N=C([N])[N])C(=O)[N][C@@H]([C]c1ccc([O])cc1)C(=O)[N][C@@H]([C][C][C]N=C([N])[N])C(=O)[N][C@@H]([C][C][C][C][N])C(=O)[N][C@@H]([C][C]C([N])=O)C(=O)[N][C@@H]([C][C]S[C])C(=O)[N][C@@H]([C])C(=O)[N][C@@H]([C]([C])[C])C(=O)[N][C@@H]([C][C][C][C][N])C(=O)[N][C@@H]([C][C][C][C][N])C(=O)[N][C@@H]([C]c1ccc([O])cc1)C(=O)[N][C@@H]([C][C]([C])[C])C(=O)[N][C@@H]([C])C(=O)[N][C@@H]([C])C(=O)[N][C@@H]([C]([C])[C])C(=O)[N][C@@H]([C][C]([C])[C])C([N])=O)[C@@H]([C])[O] [PACAP(2-27)]
Ki: 0.03 µM
